Laboratory results as given in publication PMC6326728, “eIF2B activator prevents neurological defects caused by a chronic integrated stress response” (eLife, 2019).

Legend:
eIF2B = biological target: T1, eIF2B (Mus musculus, UniProt Q61749+Q99LD9); test: GEF assay, Bodipy-FL-GDP release from eIF2, fluorescence; assay type: biochemical; details: activator; MEF lysate 0.1 mg/mL; 25 nM Bodipy-FL-GDP-loaded eIF2; 3 nM phospho-eIF2; 0.1 mM GDP; 25°C; homozygous R191H MEF lysate
T1 construct: gene Eif2b2; native endogenous complex in lysate of mouse embryonic fibroblasts; decamer of five subunits; with Translation initiation factor eIF2B subunit alpha; Translation initiation factor eIF2B subunit gamma; Translation initiation factor eIF2B subunit epsilon

5-HT1A (h) = biological target: T2, 5-HT1A (h) (Homo sapiens, UniProt P08908); test: biochemical; set-up: CEREP panel radioligand binding displacement, % inhibition of control specific binding by 10 uM 2BAct; details: Type=Agonist radioligand; read-out: % inhibition of Control specific binding
T2 construct: gene HTR1A
Procedure: (§1) Supplementary file elife-42940-supp1.xlsx: Supplementary file 1. (A) Binding of 2BAct at 10 μM to the CEREP panel of receptors/enzymes/ion channels. Compound binding was calculated as a % inhibition of the binding of a radioactively labeled ligand specific for each target. Results showing inhibition or stimulation higher than 50% are considered to represent significant effects of the test compound. (B) Pharmacokinetic data from 2BAct dosing in mice. (C) GO Biological Processes identified by enrichment analysis of RNA-seq data. (D) List of genes used for enrichment analysis of scRNA-seq data.

5-HT1B = biological target: T3, 5-HT1B (Rattus norvegicus, UniProt P28564); test: biochemical; set-up: CEREP panel radioligand binding displacement, % inhibition of control specific binding by 10 uM 2BAct; details: Type=Antagonist radioligand; read-out: % inhibition of Control specific binding
T3 construct: gene Htr1b
Procedure: as §1

5-HT7 (h) = biological target: T4, 5-HT7 (h) (Homo sapiens, UniProt P34969); test: biochemical; set-up: CEREP panel radioligand binding displacement, % inhibition of control specific binding by 10 uM 2BAct; details: Type=Agonist radioligand; read-out: % inhibition of Control specific binding
T4 construct: gene HTR7
Procedure: as §1

AR (h) = AR (h) (Homo sapiens, UniProt P10275); test: biochemical; set-up: CEREP panel radioligand binding displacement, % inhibition of control specific binding by 10 uM 2BAct; details: Type=Agonist radioligand; read-out: % inhibition of Control specific binding
Procedure: as §1

BZD (peripheral) = biological target: T5, BZD (peripheral) (Rattus norvegicus, UniProt P16257); test: biochemical; set-up: CEREP panel radioligand binding displacement, % inhibition of control specific binding by 10 uM 2BAct; details: Type=Antagonist radioligand; read-out: % inhibition of Control specific binding
T5 construct: gene Tspo; peripheral
Procedure: as §1

D1 (h) = biological target: T6, D1 (h) (Homo sapiens, UniProt P21728); test: biochemical; set-up: CEREP panel radioligand binding displacement, % inhibition of control specific binding by 10 uM 2BAct; details: Type=Antagonist radioligand; read-out: % inhibition of Control specific binding
T6 construct: gene DRD1
Procedure: as §1

ET-A (h) = biological target: T7, ET-A (h) (Homo sapiens, UniProt P25101); test: biochemical; set-up: CEREP panel radioligand binding displacement, % inhibition of control specific binding by 10 uM 2BAct; details: Type=Agonist radioligand; read-out: % inhibition of Control specific binding
T7 construct: gene EDNRA
Procedure: as §1

Estrogen ER alpha (h) = biological target: T8, Estrogen ER alpha (h) (Homo sapiens, UniProt P03372); test: biochemical; set-up: CEREP panel radioligand binding displacement, % inhibition of control specific binding by 10 uM 2BAct; details: Type=Agonist radioligand; read-out: % inhibition of Control specific binding
T8 construct: gene ESR1
Procedure: as §1

GABA-A1 (h) (a1, b2, g2) = biological target: T9, GABA-A1 (h) (a1, b2, g2) (Homo sapiens, UniProt P14867+P18507+P47870); test: biochemical; set-up: CEREP panel radioligand binding displacement, % inhibition of control specific binding by 10 uM 2BAct; details: Type=Agonist radioligand; read-out: % inhibition of Control specific binding
T9 construct: gene GABRA1; a1, b2, g2
Procedure: as §1

M1 (h) = biological target: T10, M1 (h) (Homo sapiens, UniProt P11229); test: biochemical; set-up: CEREP panel radioligand binding displacement, % inhibition of control specific binding by 10 uM 2BAct; details: Type=Antagonist radioligand; read-out: % inhibition of Control specific binding
T10 construct: gene CHRM1
Procedure: as §1

M4 (h) = biological target: T11, M4 (h) (Homo sapiens, UniProt P08173); test: biochemical; set-up: CEREP panel radioligand binding displacement, % inhibition of control specific binding by 10 uM 2BAct; details: Type=Antagonist radioligand; read-out: % inhibition of Control specific binding
T11 construct: gene CHRM4
Procedure: as §1

MAO-A = biological target: T12, MAO-A (Rattus norvegicus, UniProt P21396); test: biochemical; set-up: CEREP panel radioligand binding displacement, % inhibition of control specific binding by 10 uM 2BAct; details: Type=Antagonist radioligand; read-out: % inhibition of Control specific binding
T12 construct: gene Maoa
Procedure: as §1

NK1 (h) = biological target: T13, NK1 (h) (Homo sapiens, UniProt P25103); test: biochemical; set-up: CEREP panel radioligand binding displacement, % inhibition of control specific binding by 10 uM 2BAct; details: Type=Agonist radioligand; read-out: % inhibition of Control specific binding
T13 construct: gene TACR1
Procedure: as §1

NK2 (h) = biological target: T14, NK2 (h) (Homo sapiens, UniProt P21452); test: biochemical; set-up: CEREP panel radioligand binding displacement, % inhibition of control specific binding by 10 uM 2BAct; details: Type=Agonist radioligand; read-out: % inhibition of Control specific binding
T14 construct: gene TACR2
Procedure: as §1

V1a (h) = biological target: T15, V1a (h) (Homo sapiens, UniProt P37288); test: biochemical; set-up: CEREP panel radioligand binding displacement, % inhibition of control specific binding by 10 uM 2BAct; details: Type=Agonist radioligand; read-out: % inhibition of Control specific binding
T15 construct: gene AVPR1A
Procedure: as §1

Y1 (h) = biological target: T16, Y1 (h) (Homo sapiens, UniProt P25929); test: biochemical; set-up: CEREP panel radioligand binding displacement, % inhibition of control specific binding by 10 uM 2BAct; details: Type=Agonist radioligand; read-out: % inhibition of Control specific binding
T16 construct: gene NPY1R
Procedure: as §1

b1 (h) = biological target: T17, b1 (h) (Homo sapiens, UniProt P08588); test: biochemical; set-up: CEREP panel radioligand binding displacement, % inhibition of control specific binding by 10 uM 2BAct; details: Type=Agonist radioligand; read-out: % inhibition of Control specific binding
T17 construct: gene ADRB1
Procedure: as §1

k (KOP) = biological target: T18, k (KOP) (Rattus norvegicus, UniProt P34975); test: biochemical; set-up: CEREP panel radioligand binding displacement, % inhibition of control specific binding by 10 uM 2BAct; details: Type=Agonist radioligand; read-out: % inhibition of Control specific binding
T18 construct: gene Oprk1
Procedure: as §1

m (MOP) (h) = biological target: T19, m (MOP) (h) (Homo sapiens, UniProt P35372); test: biochemical; set-up: CEREP panel radioligand binding displacement, % inhibition of control specific binding by 10 uM 2BAct; details: Type=Agonist radioligand; read-out: % inhibition of Control specific binding
T19 construct: gene OPRM1
Procedure: as §1

T9 sequence (P14867 whole entry): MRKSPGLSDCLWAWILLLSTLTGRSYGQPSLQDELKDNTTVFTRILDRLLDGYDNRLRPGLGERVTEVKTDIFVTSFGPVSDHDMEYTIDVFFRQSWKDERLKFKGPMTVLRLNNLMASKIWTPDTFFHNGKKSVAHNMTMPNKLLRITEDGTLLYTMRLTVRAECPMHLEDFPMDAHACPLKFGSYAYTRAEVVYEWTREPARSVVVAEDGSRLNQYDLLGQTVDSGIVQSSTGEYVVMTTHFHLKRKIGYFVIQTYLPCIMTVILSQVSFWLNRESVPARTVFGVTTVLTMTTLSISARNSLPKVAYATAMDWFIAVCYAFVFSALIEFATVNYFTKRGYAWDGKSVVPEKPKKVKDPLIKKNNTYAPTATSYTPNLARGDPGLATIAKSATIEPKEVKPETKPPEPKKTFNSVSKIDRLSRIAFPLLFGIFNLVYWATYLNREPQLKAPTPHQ
T9 sequence (P18507 whole entry): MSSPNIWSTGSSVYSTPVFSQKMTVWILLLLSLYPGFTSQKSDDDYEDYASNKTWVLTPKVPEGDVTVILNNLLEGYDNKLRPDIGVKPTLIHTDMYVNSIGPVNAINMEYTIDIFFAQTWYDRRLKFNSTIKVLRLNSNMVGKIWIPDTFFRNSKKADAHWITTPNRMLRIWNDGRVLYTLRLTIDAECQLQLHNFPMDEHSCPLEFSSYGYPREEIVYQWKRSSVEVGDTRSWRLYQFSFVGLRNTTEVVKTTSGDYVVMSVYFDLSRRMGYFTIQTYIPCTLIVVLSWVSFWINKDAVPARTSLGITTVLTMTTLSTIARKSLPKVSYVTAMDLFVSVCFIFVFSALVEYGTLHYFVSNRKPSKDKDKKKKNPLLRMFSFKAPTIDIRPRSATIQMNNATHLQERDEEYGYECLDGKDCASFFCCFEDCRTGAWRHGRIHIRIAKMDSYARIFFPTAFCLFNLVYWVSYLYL
T9 sequence (P47870 whole entry): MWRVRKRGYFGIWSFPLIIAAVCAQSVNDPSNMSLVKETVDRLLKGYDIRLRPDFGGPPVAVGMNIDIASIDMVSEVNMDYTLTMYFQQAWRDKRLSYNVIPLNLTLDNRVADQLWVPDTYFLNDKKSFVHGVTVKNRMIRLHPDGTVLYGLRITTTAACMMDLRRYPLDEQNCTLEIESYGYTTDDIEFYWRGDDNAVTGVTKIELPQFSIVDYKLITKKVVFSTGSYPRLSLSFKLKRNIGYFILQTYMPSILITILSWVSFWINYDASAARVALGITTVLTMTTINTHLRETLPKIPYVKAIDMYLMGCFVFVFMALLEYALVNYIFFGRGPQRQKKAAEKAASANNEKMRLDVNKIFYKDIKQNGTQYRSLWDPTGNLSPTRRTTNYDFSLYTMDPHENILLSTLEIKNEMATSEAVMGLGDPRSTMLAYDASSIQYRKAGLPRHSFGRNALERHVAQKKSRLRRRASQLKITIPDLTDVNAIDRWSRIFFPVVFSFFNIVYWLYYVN
T11 sequence (P08173 whole entry): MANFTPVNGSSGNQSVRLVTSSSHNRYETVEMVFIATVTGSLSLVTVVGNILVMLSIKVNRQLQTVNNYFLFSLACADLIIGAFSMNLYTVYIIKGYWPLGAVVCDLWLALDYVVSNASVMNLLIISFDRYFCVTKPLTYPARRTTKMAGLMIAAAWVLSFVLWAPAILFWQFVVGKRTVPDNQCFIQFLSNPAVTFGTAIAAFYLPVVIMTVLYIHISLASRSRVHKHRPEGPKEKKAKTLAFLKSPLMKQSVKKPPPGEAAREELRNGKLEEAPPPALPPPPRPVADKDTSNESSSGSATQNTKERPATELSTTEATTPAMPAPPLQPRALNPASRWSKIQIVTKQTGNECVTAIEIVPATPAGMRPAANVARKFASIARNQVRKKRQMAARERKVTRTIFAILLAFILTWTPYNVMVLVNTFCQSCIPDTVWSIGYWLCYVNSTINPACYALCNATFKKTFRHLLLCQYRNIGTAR
T1 sequence (Q99LD9 whole entry): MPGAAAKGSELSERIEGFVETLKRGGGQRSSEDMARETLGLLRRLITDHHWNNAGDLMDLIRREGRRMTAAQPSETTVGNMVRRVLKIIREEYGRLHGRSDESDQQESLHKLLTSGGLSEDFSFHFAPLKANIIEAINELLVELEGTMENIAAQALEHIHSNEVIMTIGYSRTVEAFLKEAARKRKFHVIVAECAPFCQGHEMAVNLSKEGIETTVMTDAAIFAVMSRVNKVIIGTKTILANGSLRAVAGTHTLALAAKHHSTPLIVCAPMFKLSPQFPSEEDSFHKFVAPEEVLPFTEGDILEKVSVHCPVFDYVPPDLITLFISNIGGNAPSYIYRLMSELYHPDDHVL
T1 sequence (Q61749 2-524): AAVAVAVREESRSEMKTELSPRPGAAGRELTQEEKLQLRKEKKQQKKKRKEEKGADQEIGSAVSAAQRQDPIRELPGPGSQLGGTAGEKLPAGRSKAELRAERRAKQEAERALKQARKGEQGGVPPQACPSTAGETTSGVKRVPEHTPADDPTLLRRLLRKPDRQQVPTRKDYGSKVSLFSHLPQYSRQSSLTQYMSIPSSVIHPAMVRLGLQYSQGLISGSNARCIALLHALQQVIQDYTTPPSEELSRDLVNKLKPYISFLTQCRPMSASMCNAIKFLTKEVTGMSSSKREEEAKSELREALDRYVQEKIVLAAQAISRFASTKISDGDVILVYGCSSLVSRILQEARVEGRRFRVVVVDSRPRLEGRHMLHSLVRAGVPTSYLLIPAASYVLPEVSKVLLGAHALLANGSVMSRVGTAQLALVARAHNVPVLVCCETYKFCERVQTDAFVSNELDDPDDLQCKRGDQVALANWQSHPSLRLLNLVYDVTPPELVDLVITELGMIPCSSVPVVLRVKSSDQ
T1 sequence (Q99LC8 whole entry partner): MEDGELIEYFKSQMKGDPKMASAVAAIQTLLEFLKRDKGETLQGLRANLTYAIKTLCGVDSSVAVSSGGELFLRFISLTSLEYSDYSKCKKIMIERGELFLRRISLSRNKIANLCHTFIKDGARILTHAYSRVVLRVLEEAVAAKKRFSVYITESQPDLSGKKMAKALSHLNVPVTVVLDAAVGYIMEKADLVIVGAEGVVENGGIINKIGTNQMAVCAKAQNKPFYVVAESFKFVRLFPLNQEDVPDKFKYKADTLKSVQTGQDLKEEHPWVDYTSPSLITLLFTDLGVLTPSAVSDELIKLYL
T1 sequence (B1AUN2 1-452 partner): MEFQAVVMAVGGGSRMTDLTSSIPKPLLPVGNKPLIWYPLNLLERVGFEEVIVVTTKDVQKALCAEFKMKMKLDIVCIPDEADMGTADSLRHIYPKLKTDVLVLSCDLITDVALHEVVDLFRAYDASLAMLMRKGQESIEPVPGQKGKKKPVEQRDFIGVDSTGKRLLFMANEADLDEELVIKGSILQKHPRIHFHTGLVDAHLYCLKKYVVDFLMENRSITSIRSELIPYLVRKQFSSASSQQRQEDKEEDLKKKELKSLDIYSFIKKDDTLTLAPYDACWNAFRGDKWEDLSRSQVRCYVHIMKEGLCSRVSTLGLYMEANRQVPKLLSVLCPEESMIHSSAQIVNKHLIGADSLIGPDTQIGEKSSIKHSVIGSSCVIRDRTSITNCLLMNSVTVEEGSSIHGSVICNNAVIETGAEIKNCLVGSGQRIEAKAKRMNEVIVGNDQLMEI
T1 sequence (Q8CHW4 whole entry R191H partner): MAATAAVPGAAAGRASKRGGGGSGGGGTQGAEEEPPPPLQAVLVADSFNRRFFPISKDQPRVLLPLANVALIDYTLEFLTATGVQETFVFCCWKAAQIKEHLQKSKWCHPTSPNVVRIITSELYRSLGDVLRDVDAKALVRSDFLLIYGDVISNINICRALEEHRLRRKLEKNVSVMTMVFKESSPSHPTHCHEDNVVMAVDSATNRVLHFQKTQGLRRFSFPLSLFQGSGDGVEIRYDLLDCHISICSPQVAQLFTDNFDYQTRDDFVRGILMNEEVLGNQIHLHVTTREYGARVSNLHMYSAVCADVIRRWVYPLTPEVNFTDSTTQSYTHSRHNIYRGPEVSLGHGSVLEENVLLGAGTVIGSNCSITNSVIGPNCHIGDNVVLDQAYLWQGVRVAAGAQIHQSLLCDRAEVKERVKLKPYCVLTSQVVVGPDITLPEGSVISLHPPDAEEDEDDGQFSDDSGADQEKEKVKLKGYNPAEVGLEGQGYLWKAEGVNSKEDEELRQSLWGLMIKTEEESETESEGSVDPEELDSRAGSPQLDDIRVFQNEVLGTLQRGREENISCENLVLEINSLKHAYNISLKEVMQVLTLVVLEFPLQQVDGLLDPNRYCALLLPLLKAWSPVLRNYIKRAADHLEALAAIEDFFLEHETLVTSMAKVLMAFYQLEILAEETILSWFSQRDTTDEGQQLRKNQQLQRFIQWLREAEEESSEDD
T14 sequence (P21452 whole entry): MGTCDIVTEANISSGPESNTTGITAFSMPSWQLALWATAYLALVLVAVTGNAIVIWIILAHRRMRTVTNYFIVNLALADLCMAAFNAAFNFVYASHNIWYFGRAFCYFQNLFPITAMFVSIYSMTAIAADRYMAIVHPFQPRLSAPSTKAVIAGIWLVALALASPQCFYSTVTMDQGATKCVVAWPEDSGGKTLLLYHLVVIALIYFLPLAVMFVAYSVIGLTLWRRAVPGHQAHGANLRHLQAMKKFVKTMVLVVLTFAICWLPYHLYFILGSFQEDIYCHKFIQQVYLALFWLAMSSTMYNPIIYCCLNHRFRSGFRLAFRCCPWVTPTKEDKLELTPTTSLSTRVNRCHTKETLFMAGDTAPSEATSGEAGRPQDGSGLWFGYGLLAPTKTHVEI
T5 sequence (P16257 whole entry): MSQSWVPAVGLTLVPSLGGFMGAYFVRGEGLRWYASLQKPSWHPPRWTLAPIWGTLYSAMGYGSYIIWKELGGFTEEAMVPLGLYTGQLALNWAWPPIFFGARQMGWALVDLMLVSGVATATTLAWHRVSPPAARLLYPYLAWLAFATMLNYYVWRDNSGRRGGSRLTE

Compound: O=C(COc1ccc(Cl)c(F)c1)NC12CC(NC(=O)c3cnc(C(F)F)cn3)(C1)C2 [2BAct]
- EC50 (eIF2B): 7.3 nM
- inhibition at 10 µM (5-HT1A (h)): 15.8%
- inhibition at 10 µM (5-HT1B): -8.8%
- inhibition at 10 µM (5-HT7 (h)): 3.9%
- inhibition at 10 µM (AR (h)): -0.2%
- inhibition at 10 µM (BZD (peripheral)): 36.2%
- inhibition at 10 µM (D1 (h)): 5.9%
- inhibition at 10 µM (ET-A (h)): -5.3%
- inhibition at 10 µM (Estrogen ER alpha (h)): -7.7%
- inhibition at 10 µM (GABA-A1 (h) (a1, b2, g2)): -19.5%
- inhibition at 10 µM (M1 (h)): 2.6%
- inhibition at 10 µM (M4 (h)): 11%
- inhibition at 10 µM (MAO-A): 10.2%
- inhibition at 10 µM (NK1 (h)): 29.1%
- inhibition at 10 µM (NK2 (h)): 12%
- inhibition at 10 µM (V1a (h)): 6.4%
- inhibition at 10 µM (Y1 (h)): -17.4%
- inhibition at 10 µM (b1 (h)): 7.8%
- inhibition at 10 µM (k (KOP)): 2.1%
- inhibition at 10 µM (m (MOP) (h)): 3%
